# Reference: ChEMBL document CHEMBL1156557, “Structure and biosynthesis of norneolambertellin produced by Lambertella sp. 1346” (Bioorg Med Chem Lett, 2008)
# Activity calls are given as the source filed them. No cut-off for these calls is given here.
# Legend:
# Monilinia fructigena = test: Antifungal activity against Monilinia fructigena; assay type: functional, organism-based
# Bipolaris oryzae = test: Antifungal activity against Cochliobolus miyabeanus at 50 ug/ml; assay type: functional, organism-based
compound,measurement,setting,value
Cc1cc2c(=O)oc3c(O)cccc3c2oc1=O,Activity,Monilinia fructigena,inactive
same,Activity,Bipolaris oryzae,Active
